According to the supplement of paper PMC10307832:

Experiments:
Assay in all cases: relative viability (nuclei count vs DMSO), 5 days (fraction); higher = more cells survive
Vemurafenib + Lapatinib = compound: CCCS(=O)(=O)Nc1ccc(F)c(C(=O)c2c[nH]c3ncc(-c4ccc(Cl)cc4)cc23)c1F [Vemurafenib] + CS(=O)(=O)CCNCc1ccc(-c2ccc3ncnc(Nc4ccc(OCc5cccc(F)c5)c(Cl)c4)c3c2)o1 [Lapatinib] (partner 2 µM)
Summary of the method: (§1)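 Cells from lung cancer lines were seeded into 1536-well plates and, one day later, dosed by pin tool. Treatments were either a single drug or a fixed dose of an anchor drug with five library-drug doses (not always all listed) in √10 steps. After 5 days, nuclei were stained in a one-step fixation (final 0.05% Triton X-100, 1% formaldehyde, 1 ug/ml Hoechst) and counted on 4× images, and relative viability is the treated-to-vehicle nuclei ratio, as the median of duplicate plates.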

OSI-027 + Lapatinib = compound: COc1cccc2cc(-c3nc([C@H]4CC[C@H](C(=O)O)CC4)n4ncnc(N)c34)[nH]c12 [OSI-027] + CS(=O)(=O)CCNCc1ccc(-c2ccc3ncnc(Nc4ccc(OCc5cccc(F)c5)c(Cl)c4)c3c2)o1 [Lapatinib] (partner 2 µM)
Summary of the method: as §1

OSI-027 + Pictilisib = compound: COc1cccc2cc(-c3nc([C@H]4CC[C@H](C(=O)O)CC4)n4ncnc(N)c34)[nH]c12 [OSI-027] + CS(=O)(=O)N1CCN(Cc2cc3nc(-c4cccc5[nH]ncc45)nc(N4CCOCC4)c3s2)CC1 [Pictilisib] (partner 1 µM)
Summary of the method: as §1

Alpelisib + Olaparib = compound: Cc1nc(NC(=O)N2CCC[C@H]2C(N)=O)sc1-c1ccnc(C(C)(C)C(F)(F)F)c1 [Alpelisib] + O=C(c1cc(Cc2n[nH]c(=O)c3ccccc23)ccc1F)N1CCN(C(=O)C2CC2)CC1 [Olaparib] (partner 8 µM)
Summary of the method: as §1

Cell Line | relative viability (Vemurafenib + Lapatinib; first compound 0.03162 µM) | relative viability (Vemurafenib + Lapatinib; first compound 0.3162 µM) | relative viability (Vemurafenib + Lapatinib; first compound 1 µM) | relative viability (OSI-027 + Lapatinib; first compound 0.01 µM) | relative viability (OSI-027 + Lapatinib; first compound 0.03162 µM) | relative viability (OSI-027 + Lapatinib; first compound 0.1 µM) | relative viability (OSI-027 + Lapatinib; first compound 0.3162 µM) | relative viability (OSI-027 + Lapatinib; first compound 1 µM) | relative viability (OSI-027 + Pictilisib; first compound 0.01 µM) | relative viability (OSI-027 + Pictilisib; first compound 0.03162 µM) | relative viability (OSI-027 + Pictilisib; first compound 0.1 µM) | relative viability (OSI-027 + Pictilisib; first compound 0.3162 µM) | relative viability (OSI-027 + Pictilisib; first compound 1 µM) | relative viability (Alpelisib + Olaparib; first compound 0.04 µM) | relative viability (Alpelisib + Olaparib; first compound 0.1265 µM) | relative viability (Alpelisib + Olaparib; first compound 0.4 µM) | relative viability (Alpelisib + Olaparib; first compound 1.265 µM) | relative viability (Alpelisib + Olaparib; first compound 4 µM) | relative viability (Vemurafenib + Lapatinib; first compound 0.1 µM)
NCI-H358 | 0.408 | 0.505 | 0.407 | 0.444 | 0.475 | 0.394 | 0.389 | 0.309 | 0.334 | 0.333 | 0.273 | 0.267 | 0.284 | 0.665 | 0.578 | 0.544 | 0.403 | 0.332 | –
NCI-H460 | 0.929 | 0.82 | 0.926 | 1.11 | 0.716 | 0.814 | 0.536 | 0.102 | 0.274 | 0.416 | 0.295 | 0.314 | 0.211 | 0.446 | 0.501 | 0.496 | 0.42 | 0.375 | 1.08
NCI-H520 | 0.759 | 0.859 | 0.751 | 0.832 | 0.835 | 0.666 | 0.408 | 0.235 | 0.31 | 0.268 | 0.219 | 0.17 | 0.145 | 0.285 | 0.298 | 0.331 | 0.231 | 0.272 | 0.839
NCI-H596 | 1.04 | 0.874 | 1.07 | 1.05 | 1.19 | 0.934 | 0.742 | 0.832 | 0.41 | 0.435 | 0.361 | 0.317 | 0.311 | 0.705 | 0.701 | 0.778 | 0.491 | 0.438 | 1.03
NCI-H647 | 0.951 | 0.852 | 0.949 | 1.11 | 1.02 | 1.17 | 0.843 | 0.443 | 0.395 | 0.398 | 0.234 | 0.276 | 0.15 | 0.534 | 0.485 | 0.569 | 0.487 | 0.436 | 1.06
NCI-H650 | 0.838 | 0.313 | 0.681 | 0.838 | 0.883 | 0.516 | 0.707 | 0.39 | 0.882 | 0.745 | 0.702 | 0.452 | 0.345 | 0.391 | 0.409 | 0.425 | 0.378 | 0.317 | 1.15
NCI-H661 | 0.488 | 0.507 | 0.424 | 0.509 | 0.519 | 0.453 | 0.334 | 0.279 | 0.42 | 0.392 | 0.344 | 0.254 | 0.268 | 0.734 | 0.773 | 0.878 | 0.732 | 0.749 | 0.534
NCI-H727 | 0.653 | 1.16 | 0.886 | 0.906 | 0.875 | 0.692 | 0.666 | 0.577 | 0.3 | 0.247 | 0.351 | 0.246 | 0.319 | 0.816 | 0.708 | 0.768 | 0.754 | 0.448 | 0.772
NCI-H838 | 0.877 | – | 1.12 | 0.937 | 0.975 | 0.868 | 0.584 | 0.377 | 0.409 | 0.434 | 0.294 | 0.241 | 0.297 | 0.774 | 0.754 | 0.744 | 0.637 | 0.613 | 1.05
NCI-H1299 | 0.965 | 0.885 | 0.952 | 1.02 | 1.04 | 1.04 | 1.01 | 0.645 | 0.787 | 0.627 | 0.548 | 0.338 | 0.242 | 1 | 0.96 | 1.01 | 0.896 | 0.966 | 0.93
NCI-H1355 | 0.962 | 0.837 | 1.08 | 1.13 | 0.957 | 0.873 | 0.561 | 0.363 | 0.436 | 0.399 | 0.326 | 0.271 | 0.208 | 0.747 | 0.727 | 0.807 | 0.629 | 0.519 | 0.956
NCI-H1395 | 0.891 | – | 1.19 | 0.854 | 0.98 | 0.829 | 0.701 | 0.735 | 0.559 | 0.705 | 0.514 | 0.458 | 0.554 | 0.45 | 0.511 | 0.472 | 0.408 | 0.451 | 0.95
NCI-H1437 | 0.748 | 0.698 | 0.876 | 0.807 | 0.756 | 0.807 | 0.69 | 0.312 | 0.359 | 0.4 | 0.282 | 0.222 | 0.214 | 0.64 | 0.684 | 0.679 | 0.627 | 0.644 | 0.793
NCI-H1650 | 0.7 | 0.699 | 0.738 | 0.76 | 0.725 | 0.643 | 0.646 | 0.392 | 0.551 | 0.553 | 0.474 | 0.432 | 0.347 | 0.878 | 0.786 | 0.932 | 0.523 | 0.622 | –
NCI-H1651 | 0.853 | 0.756 | 0.824 | 0.842 | – | 0.728 | 0.725 | 0.371 | 0.538 | – | 0.504 | 0.464 | 0.282 | 0.182 | 0.188 | 0.203 | 0.198 | 0.17 | 0.772
NCI-H1666 | 0.581 | 0.72 | 0.654 | 0.521 | 0.709 | 0.554 | 0.33 | 0.27 | 0.365 | 0.369 | 0.537 | 0.27 | 0.257 | 0.771 | 0.774 | 0.816 | 0.704 | 0.688 | –
NCI-H1703 | 1.19 | 0.924 | 0.987 | 1.33 | 1.1 | 0.889 | 0.736 | 0.365 | 0.318 | 0.242 | 0.244 | 0.231 | 0.201 | 0.415 | 0.335 | 0.296 | 0.204 | 0.15 | 0.916
